Data on 4 compounds can be found in ChEMBL document CHEMBL1201862, “PubChem BioAssay data set” (2004).

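Five compound concentrations were applied to cells in 96-well plates for 48 hours; endpoints were derived by simple linear interpolation of the resulting dose-response curve. GI50 = concentration required for 50% inhibition of growth.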 The source made the active and inactive calls. No stated cut-off is given here; in the data, active = GI50 up to about 1.1 µM and inactive = higher. Some results are limits rather than exact numbers.

What all share (assay): NCI anticancer screen, dose series, 48 h
Test [1] has as its system SNB-75.
Test [2] relates to DLD-1.
Test [3] has as its system EKVX.
For test [4], the system named is CCRF-CEM.
Test [5] deals with HCT-116.
Test [6] deals with XF498.
Test [7] deals with LOX IMVI.
In test [8] the test system is UACC-62.
The subject of test [9] is HOP-18.
Test [10] deals with OVCAR-8.
Test [11] concerns SK-OV-3.
Test [12] has as its system KM-20L2.
The subject of test [13] is UO-31.
In test [14] the test system is KM12.
For test [15], the system named is OVCAR-3.
The test system of test [16] is M14.

Regarding `CC1(CO)C(O)CCC2(C)C1C(O)CC1CC3CC12CCC3(O)CO` (stereo unspecified), the GI50 in test [1] was > 189 µM (inactive); in test [2] it was > 225 µM (inactive); in test [3], > 205 µM (inactive); in [4], 138 µM (inactive); in [5] it was > 217 µM (inactive); in test [6], 29.6 µM (inactive). Also, the GI50 in test [7] was > 225 µM (inactive); in [8], > 225 µM (inactive); in test [9], > 225 µM (inactive); in test [10] it was > 213 µM (inactive); in [11], > 225 µM (inactive); in [12], > 225 µM (inactive). The GI50 was > 217 µM (inactive) in [13], > 225 µM (inactive) in test [14] and > 225 µM (inactive) in test [15].
Take `CC1=CC2=C(C=O)C(=O)[C@](C)(O)[C@@H](O)C2=CO1`: the GI50 in [1] is 13.8 µM (inactive); in [2], 28.9 µM (inactive); in [3], 46.9 µM (inactive); in test [4] it was 21.5 µM (inactive); in test [5], 22.3 µM (inactive); in [6] it was > 54.3 µM (inactive). For the same compound, the GI50 was 27.7 µM (inactive) in [7]; 23.5 µM (inactive) in [8]; > 54.5 µM (inactive) in test [9]; > 64.7 µM (inactive) in [10]; 19.5 µM (inactive) in test [11]; 1.21 µM (inactive) in test [12]. The GI50 in test [13] is 16.8 µM (inactive); in test [14], 33.3 µM (inactive); in test [15], 1.56 µM (inactive).
Consider `[N-]=[N+]=NC1(Cc2ccccc2)C(=O)Nc2ccccc2C1=O` (stereo unspecified), for which the GI50 in test [1], in [2], in test [3], in test [4], in [5] and in test [6] was > 100 µM (inactive) each time. The GI50 in test [16], in test [7], in test [8], in test [9], in test [10] and in [11] was > 100 µM (inactive) throughout. Moreover, the GI50 in test [12] was > 100 µM (inactive); in [13] it was 39.6 µM (inactive); in test [14], > 100 µM (inactive); in test [15], 91.6 µM (inactive).
Take `O=C1C=C2SC3C[C@@]24CC1(O)[N+]1=c2c4c(c(O)c4c2=C(C=N4)CC1)N3`: the GI50 was 1.83 µM (inactive) in [1]; 1.11 µM (active) in test [2]; 4.13 µM (inactive) in test [3]; 0.321 µM (active) in test [4]; 0.217 µM (active) in test [5]; 1.85 µM (inactive) in test [6]. Besides, the GI50 is 0.546 µM (active) in test [7]; 0.533 µM (active) in test [8]; 2.43 µM (inactive) in [9]; 0.33 µM (active) in test [10]; 1.95 µM (inactive) in test [11]; 0.313 µM (active) in test [12]. Moreover, the GI50 in test [13] is 1.89 µM (inactive); in test [14] it was 1.53 µM (inactive); in test [15] it was 0.206 µM (active).
